Assay results published in PubChem BioAssay AID330 (DTP/NCI, 2004).
Values joined by “and” are separate entries in the source; they are usually repeats but may differ in a detail not shown here. Equal values may be shown once. Toxic doses and inconclusive results are not listed.

System: P388 leukemia ip, CD2F1 mice, survival T/C
Assay: NCI In Vivo Anticancer Drug Screen. Data for tumor model P388 Leukemia (intraperitoneal) in CD2F1 (CDF1) mice
Settings: endpoint: median survival time, higher = longer survival
How it was run: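 Mice carrying the transplanted tumor received test compound or vehicle. Survival was recorded in each group, and the value is the treated-group measurement divided by that of the vehicle-treated control group.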

[1] = dose: 100.0 mg/kg/injection, schedule: Q04DX003 (ip), vehicle: Klucel (hydroxypropylcellulose) (HPC)
[2] = dose: 200.0 mg/kg/injection, schedule: Q04DX003 (ip), vehicle: Klucel (hydroxypropylcellulose) (HPC)
[3] = dose: 400.0 mg/kg/injection, schedule: Q04DX003 (ip), vehicle: Klucel (hydroxypropylcellulose) (HPC)
[4] = dose: 50.0 mg/kg/injection, schedule: Q01DX005 (ip), vehicle: Klucel (hydroxypropylcellulose) (HPC)
[5] = dose: 100.0 mg/kg/injection, schedule: Q01DX005 (ip), vehicle: Klucel (hydroxypropylcellulose) (HPC)

## CC(OC1OC(C(=O)O)C(O)C(O)C1O)c1ccccc1 (centres undefined)
dose: 200.0 mg/kg/injection, schedule: Q01DX009 (ip), vehicle: saline sonified
  T/C: 100 % of control
dose: 400.0 mg/kg/injection, schedule: Q01DX009 (ip), vehicle: saline sonified
  T/C: 95 % of control

## C=CC1CC[N-]CC1.C=CC1CC[N-]CC1.C=CC1CC[N-]CC1.[Cl][Cr]([Cl])[Cl]
dose: 12.5 mg/kg/injection, schedule: Q04DX003 (ip), vehicle: saline with Tween-80
  T/C: 100 % of control
dose: 25.0 mg/kg/injection, schedule: Q04DX003 (ip), vehicle: saline with Tween-80
  T/C: 100 % of control
dose: 50.0 mg/kg/injection, schedule: Q04DX003 (ip), vehicle: saline with Tween-80
  T/C: 100 % of control

## CN(C)c1ccc(/C=C/C(=O)c2nc3ccccc3[nH]2)cc1
[1]
  T/C: 100 % of control
[2]
  T/C: 100 % of control
[3]
  T/C: 86 % of control

## CN1C(=O)C(O)(C2=C3OCOC3=CC(=O)C2=O)c2ccccc21 (centres undefined)
dose: 6.25 mg/kg/injection, schedule: Q01DX005 (ip), vehicle: saline
  T/C: 105 % of control
dose: 12.5 mg/kg/injection, schedule: Q01DX005 (ip), vehicle: saline
  T/C: 103 % of control
dose: 25.0 mg/kg/injection, schedule: Q01DX005 (ip), vehicle: saline
  T/C: 102 % of control

## O=C1NC(O)c2ccccc2O1 (centres undefined)
dose: 50.0 mg/kg/injection, schedule: Q01DX009 (ip), vehicle: saline
  T/C: 106 % of control
dose: 100.0 mg/kg/injection, schedule: Q01DX009 (ip), vehicle: saline
  T/C: 123 % of control

## CC1c2ccccc2-c2ccccc2N1C(=O)c1cccc(C(=O)N2c3ccccc3-c3ccccc3C2C)n1 (centres undefined)
dose: 60.0 mg/kg/injection, schedule: Q01DX005 (ip), vehicle: saline with Tween-80
  T/C: 93 % of control
dose: 120.0 mg/kg/injection, schedule: Q01DX005 (ip), vehicle: saline with Tween-80
  T/C: 98 % of control
dose: 240.0 mg/kg/injection, schedule: Q01DX005 (ip), vehicle: saline with Tween-80
  T/C: 90 % of control

## NC(CCl)C(=O)O (centres undefined)
dose: 50.0 mg/kg/injection, schedule: Q01DX005 (ip), vehicle: saline
  T/C: 100 % of control
dose: 100.0 mg/kg/injection, schedule: Q01DX005 (ip), vehicle: saline
  T/C: 100 % of control
dose: 200.0 mg/kg/injection, schedule: Q01DX005 (ip), vehicle: saline
  T/C: 100 % of control

## Cc1ccccc1N=Nc1c(O)n(-c2ccccc2Cl)c(=S)n(-c2ccccc2)c1=O
dose: 25.0 mg/kg/injection, schedule: Q01DX001 (ip), vehicle: Klucel (hydroxypropylcellulose) (HPC)
  T/C: 102 % of control
dose: 50.0 mg/kg/injection, schedule: Q01DX001 (ip), vehicle: Klucel (hydroxypropylcellulose) (HPC)
  T/C: 104 % of control
dose: 100.0 mg/kg/injection, schedule: Q01DX001 (ip), vehicle: Klucel (hydroxypropylcellulose) (HPC)
  T/C: 101 % of control

## NC(=O)c1[nH]c(N=Nc2ccccc2)nc1N
[1]
  T/C: 102 % of control
[2]
  T/C: 102 % of control
[3]
  T/C: 103 % of control

## CO/N=C/c1ccc([N+](=O)[O-])s1
dose: 12.0 mg/kg/injection, schedule: Q01DX001 (ip), vehicle: other
  T/C: 90 % of control
dose: 25.0 mg/kg/injection, schedule: Q01DX001 (ip), vehicle: other
  T/C: 104 % of control
dose: 50.0 mg/kg/injection, schedule: Q01DX001 (ip), vehicle: other
  T/C: 100 % of control

## CC1=CC2(C)C3C=C(C)C(C2C(=O)C1=O)C(C)(O)C3=O (centres undefined)
dose: 50.0 mg/kg/injection, schedule: Q01DX005 (ip), vehicle: saline with Tween-80
  T/C: 97 % of control
dose: 100.0 mg/kg/injection, schedule: Q01DX005 (ip), vehicle: saline with Tween-80
  T/C: 106 % of control
dose: 200.0 mg/kg/injection, schedule: Q01DX005 (ip), vehicle: saline with Tween-80
  T/C: 106 % of control

## COc1cc(-c2nc(SC)n[nH]2)cc(OC)c1OC
[4]
  T/C: 95 % of control
[5]
  T/C: 104 % of control
dose: 200.0 mg/kg/injection, schedule: Q01DX005 (ip), vehicle: Klucel (hydroxypropylcellulose) (HPC)
  T/C: 88 % of control

## CCC1=C[C@H]2CN(CCc3c([nH]c4ccccc34)[C@@](OC(C)=O)(c3cc4c(cc3OC)N(C)[C@H]3[C@@](O)(C(=O)NCCSc5ccccc5)[C@H](O)[C@]5(CC)C=CCN6CC[C@]43[C@@H]65)C2)C1
dose: 0.5 mg/kg/injection, schedule: Q01DX001 (ip), vehicle: water
  T/C: 107 % of control
dose: 8.0 mg/kg/injection, schedule: Q01DX001 (ip), vehicle: water
  T/C: 174 % of control
dose: 16.0 mg/kg/injection, schedule: Q01DX001 (ip), vehicle: water
  T/C: 163 % of control and 184 % of control

## Cc1nc(Nc2ccc(F)cc2)c2c(-c3ccccc3)c[nH]c2n1
[4]
  T/C: 90 % of control
[5]
  T/C: 88 % of control
